Measurements: ChEMBL document CHEMBL4152195, “Lipid reducing activity and toxicity profiles of a library of polyphenol derivatives” (Eur J Med Chem, 2018)
Calls of active or inactive are those of the source. The rule behind the calls is not given here.

Tests used:
Danio rerio [1] = organism: Danio rerio; assay: Toxicity in zebra fish larvae at 5 uM after 48 hrs; type: organism-based; settings: zebrafish, in vivo
3T3-L1 [2] = assay: Cytotoxicity against mouse 3T3L1 cells at 50 uM after 24 hrs by sulforhodamine B assay; type: cell-based; settings: 3t3-l1, 24 h
3T3-L1 [3] = assay: Cytotoxicity against mouse 3T3L1 cells at 50 uM after 48 hrs by sulforhodamine B assay; type: cell-based; settings: 3t3-l1, 48 h
Danio rerio [4] = organism: Danio rerio; assay: Lipid lowering activity in zebrafish embryos by Nile red fat metabolism assay; type: functional, organism-based
Danio rerio [5] = organism: Danio rerio; assay: Lipid lowering activity in zebrafish embryos at 5 uM by Nile red fat metabolism assay; type: functional, organism-based

Row | SMILES | Activity (Danio rerio [1]) | Activity (3T3-L1 [2]) | Activity (3T3-L1 [3]) | EC50 (Danio rerio [4]) | Activity (Danio rerio [5])
1 | Cc1c(O)cc2oc3ccccc3c(=O)c2c1O | 0 to 25% | 26 to 50% | 0 to 25% |  | 
2 | CC(C)[C@H](CO)NC(=O)COc1ccc2c(=O)c3ccccc3oc2c1 | 0 to 25% | 0 to 25% | 0 to 25% |  | 
3 | CCCOc1ccc(NNC(=O)c2ccncc2)c2c(=O)c3ccccc3sc12 | 51 to 75% | 0 to 25% | 51 to 75% |  | 
4 | COc1ccccc1C(=O)c1ccc(OC)c(OC)c1O | 0 to 25% | 0 to 25% | 51 to 75% |  | 
5 | COc1cc2oc3c(OC)c4c(cc3c(=O)c2cc1OC)CCC(C)(C)O4 | 0 to 25% | 0 to 25% | 0 to 25% | 540 nM | Active
6 | CC1(C)C=Cc2cc3c(=O)c4ccccc4oc3c(O)c2O1 | 0 to 25% | 0 to 25% | 0 to 25% | 1440 nM | Active
7 | O=c1c2ccccc2oc2cccc(OCCCCCCOc3cccc4oc5ccccc5c(=O)c34)c12 | 0 to 25% | 0 to 25% | 51 to 75% |  | 
8 | COc1cc(C(Br)Br)c2c(=O)c3ccccc3oc2c1OC | 0 to 25% | 26 to 50% | 51 to 75% |  | Active
9 | O=Cc1cc(O)c(O)c2oc3ccccc3c(=O)c12 | 0 to 25% | 0 to 25% | 51 to 75% |  | 
10 | O=c1c2ccccc2oc2cc(O)c(O)cc12 | 0 to 25% | 0 to 25% | 0 to 25% | 980 nM | Active
11 | COc1ccc2oc3ccccc3c(=O)c2c1OC | 0 to 25% | 0 to 25% | 0 to 25% | 620 nM | Active
12 | COc1c(O)cc2oc3cc(O)c(CC=C(C)C)c(O)c3c(=O)c2c1CC=C(C)C [MANGOSTIN] | 76 to 100% | 76 to 100% | 76 to 100% |  | 
13 | C=CCOc1ccc(/C=C/C(=O)/C=C/c2ccc(OCC=C)c(OC)c2)cc1OC | 0 to 25% | 0 to 25% | 0 to 25% |  | Active
14 | O=c1c2ccccc2oc2ccc(O)cc12 | 0 to 25% | 0 to 25% | 0 to 25% | 760 nM | Active
15 | O=c1c2ccccc2oc2ccccc12 [XANTHONE] | 0 to 25% | 0 to 25% | 0 to 25% |  | 
16 | CC(C)=CCOc1ccc2oc3ccccc3c(=O)c2c1OCC=C(C)C | 0 to 25% | 26 to 50% | 51 to 75% |  | 
17 | COC(=O)COc1ccc2c(=O)c3ccc(OCC(=O)OC)cc3oc2c1 | 0 to 25% | 0 to 25% | 0 to 25% | 1670 nM | Active
18 | C#CCOc1ccc(/C=C/C(=O)/C=C/c2ccc(OCC#C)c(OC)c2)cc1OC | 0 to 25% | 26 to 50% | 0 to 25% |  | Active
19 | O=C(COc1ccc2c(=O)c3ccccc3oc2c1)N[C@H](c1ccccc1)[C@@H](O)c1ccccc1 | 0 to 25% | 76 to 100% | 0 to 25% |  | Active
20 | CC1(C)C=Cc2c(cc3c(=O)c4ccccc4oc3c2O)O1 | 0 to 25% | 0 to 25% | 0 to 25% | 560 nM | Active
21 | COc1cc([C@H]2Oc3ccc4c(=O)c5ccccc5oc4c3O[C@@H]2CO)ccc1O | 0 to 25% | 0 to 25% | 0 to 25% |  | 

Row | SMILES | Activity (Danio rerio [1]) | Activity (3T3-L1 [2]) | Activity (3T3-L1 [3]) | EC50 (Danio rerio [4]) | Activity (Danio rerio [5])
22 | O=C(COc1ccc2c(=O)c3ccccc3oc2c1)N[C@@H](c1ccccc1)[C@H](O)c1ccccc1 | 0 to 25% | 76 to 100% | 0 to 25% |  | 
23 | COc1c2c(cc3c(=O)c4cc(Cl)ccc4oc13)OC(C)(C)CC2 | 0 to 25% | 0 to 25% | 0 to 25% | 860 nM | Active
24 | O=c1c2ccccc2oc2cc(O)ccc12 | 0 to 25% | 0 to 25% | 0 to 25% |  | 
25 | COC(=O)c1ccccc1Oc1ccc(OC)c(OC)c1 | 0 to 25% | 0 to 25% | 51 to 75% |  | 
26 | COc1cc(/C=C/C(=O)/C=C/c2ccc(OCc3cn(CCO[C@H]4O[C@@H](COC(C)=O)[C@H](OC(C)=O)[C@@H](OC(C)=O)[C@@H]4NC(C)=O)nn3)c(OC)c2)ccc1OCc1cn(CCO[C@@H]2O[C@H](COC(C)=O)[C@@H](OC(C)=O)[C@H](OC(C)=O)[C@@H]2NC(C)=O)nn1 | 0 to 25% | 0 to 25% | 0 to 25% |  | 
27 | COc1ccc2c(=O)c3cc(C(=O)N[C@H](CO)c4ccccc4)ccc3oc2c1 | 0 to 25% | 51 to 75% | 26 to 50% |  | 
28 | O=c1c2ccccc2oc2c(O)c(O)ccc12 [3,4-DIHYDROXYXANTHONE] | 0 to 25% | 26 to 50% | 51 to 75% |  | Active
29 | O=c1c2ccc(O)cc2oc2cc(O)ccc12 | 0 to 25% | 0 to 25% | 0 to 25% |  | 
30 | CCCOc1ccc(NCCN(CC)CC)c2c(=O)c3ccccc3sc12 | 76 to 100% | 0 to 100% | 51 to 100% |  | 
31 | COc1ccc(Oc2ccccc2C(=O)O)cc1OC | 0 to 25% | 0 to 25% | 0 to 25% |  | 
32 | C=Cc1cc2c(=O)c3ccccc3oc2c(OC)c1O | 0 to 25% | 0 to 25% | 51 to 75% |  | Active
33 | O=c1c2cc(O)c(O)cc2oc2cc(O)c([C@@H]3O[C@H](CO)[C@@H](O)[C@H](O)[C@H]3O)c(O)c12 [MANGIFERIN] | 0 to 25% | 0 to 25% | 0 to 25% |  | 
34 | CCCOc1ccc(NCCN(CC)CC)c2c(=O)c3ccccc3sc12.Cl | 76 to 100% | 76 to 100% | 76 to 100% |  | 
35 | COc1cc(C=O)c2c(=O)c3ccccc3oc2c1O | 0 to 25% | 0 to 25% | 51 to 75% |  | Active
36 | COc1cc(CO)c2c(=O)c3ccccc3oc2c1OC | 0 to 25% | 0 to 25% | 26 to 50% |  | Active
37 | C#CCOc1ccc2c(=O)c3ccc(OCC#C)cc3oc2c1 | 0 to 25% | 0 to 25% | 0 to 25% |  | 
38 | CCCOc1ccc(OC)c2c(=O)c3ccccc3sc12 | 0 to 25% | 0 to 25% | 51 to 75% |  | Active
39 | COc1cc2c(c3oc4ccccc4c(=O)c13)OC(C)(C)C=C2 | 76 to 100% | 51 to 75% | 51 to 75% |  | Active
40 | O=C(O)Cc1ccc2oc3ccccc3c(=O)c2c1 | 0 to 25% | 0 to 25% | 0 to 25% |  | 
41 | COc1cc(/C=C/C(=O)/C=C/c2ccc(O)c(OC)c2)ccc1O | 0 to 25% | 0 to 25% | 0 to 25% |  | Active
42 | CC(=O)Oc1ccc(C(=O)c2ccc(OC(C)=O)c(OC(C)=O)c2)cc1OC(C)=O | 0 to 25% | 26 to 50% | 51 to 75% |  | 

Row | SMILES | Activity (Danio rerio [1]) | Activity (3T3-L1 [2]) | Activity (3T3-L1 [3]) | EC50 (Danio rerio [4]) | Activity (Danio rerio [5])
43 | O=c1c2ccccc2oc2c(O)cccc12 | 0 to 25% | 0 to 25% | 0 to 25% |  | 
44 | COc1c(O)ccc2c(=O)c3ccccc3oc12 | 0 to 25% | 0 to 25% | 0 to 25% |  | 
45 | COc1cc(C=O)c2c(=O)c3ccccc3oc2c1OC | 0 to 25% | 0 to 25% | 51 to 75% |  | Active
46 | O=c1c2ccc(O[C@H]3O[C@H](CO)[C@@H](O)[C@@H](O)[C@@H]3O)cc2oc2cc(O[C@@H]3O[C@@H](CO)[C@H](O)C(O)[C@H]3O)ccc12 (some centres undefined) | 0 to 25% | 0 to 25% | 26 to 50% |  | 
47 | O=Cc1c(O)ccc2c(=O)c3ccc(O)c(C=O)c3oc12 | 0 to 25% | 26 to 50% | 51 to 75% |  | 
48 | COc1c2c(cc3c(=O)c4ccc(O)cc4oc13)CCC(C)(C)O2 | 0 to 25% | 0 to 25% | 0 to 25% |  | 
49 | O=C(O)Cc1ccc2c(=O)c3ccccc3oc2c1 | 0 to 25% | 0 to 25% | 0 to 25% |  | Active
50 | COc1cc2oc3c(OC)c4c(cc3c(=O)c2cc1OC)OC(C)(C)CC4 | 0 to 25% | 0 to 25% | 0 to 25% |  | 
51 | COc1ccc2c(=O)c3cc(C(=O)N[C@@H](CO)c4ccccc4)ccc3oc2c1 | 0 to 25% | 0 to 25% | 0 to 25% |  | Active
52 | COc1c2c(cc3c(=O)c4ccccc4oc13)OC(C)(C)C=C2 | 0 to 25% | 26 to 50% | 51 to 75% |  | Active
53 | COc1cccc2c(=O)c3ccccc3oc12 | 0 to 25% | 26 to 50% | 0 to 25% |  | Active
54 | CCCOc1ccc(N2CCCCC2)c2c(=O)c3ccccc3sc12 | 76 to 100% | 26 to 50% | 51 to 75% |  | 
55 | COc1cccc2c(=O)c3cc4c(c(O)c3oc12)OC(C)(C)CC4 | 0 to 25% | 51 to 75% | 51 to 75% |  | 
56 | CC(C)[C@@H](CO)NC(=O)COc1ccc2c(=O)c3ccccc3oc2c1 | 0 to 25% | 0 to 25% | 0 to 25% |  | 
57 | COc1ccc2oc3ccccc3c(=O)c2c1 | 0 to 25% | 51 to 75% | 0 to 25% |  | Active
58 | CCN(CC)c1ccc2c(=O)c3cc4c(c(OC)c3oc2c1)CCC(C)(C)O4 | 76 to 100% | 51 to 75% | 51 to 75% |  | Active
59 | O=c1c2ccccc2sc2c(O)ccc(Cl)c12 | 0 to 25% | 0 to 25% | 51 to 75% |  | Active
60 | O=c1c2ccccc2oc2cccc(OCCCCCBr)c12 | 0 to 25% | 0 to 25% | 26 to 50% |  | Active
61 | O=C(O)Cc1cccc2oc3ccccc3c(=O)c12 | 0 to 25% | 0 to 25% | 26 to 50% |  | 
